In patent US20190336486A1, “METHODS FOR TREATING CANCER AND METABOLIC SYNDROME” (GLAX LLC, priority 2018, published 2019) one finds colony formation and cell proliferation data, which are given here for 1 compound.

What all share (assay type): cell-based
One test has as its system lung cancer cells. The test is described as follows: Colony formation by lung cancer cells (FIG. 10).
The test system of a further test is prostate cancer cells. Kind of test: Cell proliferation of prostate cancer cells (FIG. 13).
For another test, the system named is breast cancer cells. Kind of test: Cell proliferation of breast cancer cells (FIG. 12).
Test [1] concerns brain CSCs. Kind of test: Cell proliferation of brain CSCs (FIG. 7).
For the next test, the system named is glioblastoma cells. Kind of test: Colony formation by glioblastoma cells (FIG. 8).
The subject of the next test is glioblastoma cell lines. Kind of test: Cell proliferation of glioblastoma cell lines (FIG. 7).
The next test concerns colorectal CSCs. The test is described as follows: Cell proliferation of colorectal CSCs (FIG. 11).
A further test relates to lung cancer cells (A549). Kind of test: Cell proliferation of lung cancer cells (FIG. 9).
Test [2] relates to brain CSCs. Kind of test: Colony formation by brain CSCs (FIG. 8).
In test [3] the test system is human normal lung epithelial cells (Beas 2B). The test is described as follows: Cell proliferation of normal lung epithelial cells (FIG. 9).

In the case of `Nc1nc(CC(=O)Nc2ccc(CCNC[C@H](O)c3ccccc3)cc2)cs1` [Mirabegron], the colony formation entry in the test with lung cancer cells, in the test on glioblastoma cells and in the test on brain CSCs [2] was “inhibits colony formation” each time. Moreover, the cell proliferation entry in the test on prostate cancer cells, in the test with breast cancer cells, in the test with brain CSCs [1], in the test on glioblastoma cell lines, with colorectal CSCs and with lung cancer cells (A549) was “inhibits cell proliferation” each time. The cell proliferation entry in test [3] is “has no effect”.
